Measured values from patent publication US8697081B2, “Method of modulating neovascularization” (The Regents of the University of Michigan, priority 2008, dated 2014).

Assays:
[1] = test system: Human umbilical vein endothelial cells; assay: Protein synthesis in 3-D-embedded endothelial cells; format: cell-based; details: growth factor-stimulated cells
Excerpt: The laminar network of type A and type B lamins directly or indirectly binds chromatin and DNA, as well as a variety of inner nuclear membrane proteins functionally linked to nuclear architecture and mechanical integrity, chromatin organization, gene regulation, and DNA replication (Crisp and Burke, supra; Dechat et al., supra; Starr, supra).

[2] = test system: Human umbilical vein endothelial cells; assay: RNA synthesis (transcriptional activity) in cultured endothelial cells; format: cell-based; details: for transcriptional activity: 2-D culture conditions; for VEGF/HGF induction of transcriptional activity (RNA synthesis) / mRNA and rRNA synthesis inhibited: 3-D culture; for mRNA and rRNA synthesis inhibited: low dose actinomysin D used to separate rRNA synthesis, data not shown
Excerpt: At sites of tissue damage, inflammation or neoplasia, fibrinogen is converted into a 3-D meshwork of fibrin fibrils that serve as a structural support for endothelial cells undergoing neovascularization (Chun et al. 2006. Cell, 125: 577-591; Hiraoka et al. 1998. Cell, 95: 365-377; Schafer and Werner. 2008. Nat. Rev. Mol. Cell Biol., 9: 628-638; Zhou et al. 2008. Genes Dev., 22: 1231-1243). This process can be recapitulated in vitro by embedding serum-supplemented human endothelial cells within a 3-D fibrin gel in the presence of the pro-angiogenic factors, VEGF and HGF. Human umbilical vein endothelial cells were isolated from umbilical cords by perfusion of the umbilical vein with type 3 collagenase (Worthington, Lakewood, N.J.) and cultured in Medium-199 (Invitrogen, Carlsbad, Calif.) with 20% human serum and 50 μg/ml endothelial cell growth supplement (ECGS; BD Biosciences, Franklin Lakes, N.J.). For 3-D culture, endothelial cells were suspended in a solution of thrombin and aprotinin (Sigma, St. Louis, Mo.) and mixed 1:1 with a solution of 6 mg/ml fibrinogen (Calbiochem, Gibbstown, N.J.). Vasculogenesis was triggered by treatment with 100 ng/ml VEGF, 50 ng/ml HGF (Genentech, San Francisco, Calif.). Fibronectin fibrillogenesis was tracked in 3-D by co-culture with human fibronectin (Sigma) labeled with Alexa-594 (Invitrogen).
VEGF/HGF-induced chromatin dispersion, histone acetylation, and nuclear speckle decompaction observed in 3-D culture are consistent with global activation of transcription (Lamond and Spector, 2003. Nat. Rev. Mil. Cell Biol., 4: 605-612; Tang et al., supra). As such, RNA synthesis was quantified in cultured endothelial cells. […] Under 2-D culture conditions, transcriptional activity proceeded independently of pericellular ECM remodeling and was unaffected by FUD or GM6001.

human endothelial cells = assay: Intracellular nanorheology (bead tracking) of 3-D-embedded endothelial cells; format: cell-based
Excerpt: Endothelial cells cultured atop highly malleable surfaces retain a spherical configuration, fail to organize stress fibers, and are unable to exert tractional forces—a phenotype identical to that observed in 3-D-embedded, Fn matrix assembly-incompetent endothelial cells. A cell's internal stiffness is a viscoelastic property governed by cytoskeletal assembly, actin crosslinking, and the production of actomyosin-dependent stress. Internal stiffness changes as a function of the perceived stiffness of the surrounding substratum (Solon et al. 2007. Biophys. J., 93(12): 4453-4461). Therefore, the micromechanical properties of 3-D-embedded endothelial cells were monitored via intracellular nanorheology.
Prior to embedding in the 3-D fibrin matrix, endothelial cells were ballistically microinjected with 100 nm polystyrene beads to circumvent the endocytic pathway and subsequent directed motion of the beads. After 3 days of incubation, the beads dispersed in the cytoplasm and their centroids were tracked with high spatial and temporal resolution using fluorescence microscopy. […] Elastic moduli, which quantify the local resistance of the cytoplasm against small random forces acting on the surface of the beads, were derived from MSD curves to quantify cellular mechanical properties.
In the absence of Fn fibrillogenesis, an impaired ability of embedded endothelial cells to generate myosin-dependent forces and increase cytoplasmic stiffness was predicted to affect both Fn unfolding, as well as the ability of the cells to properly register the mechanical properties of the surrounding substratum (Wu et al. 1995. Cell, 83(5): 715-724; Zhong et al. 1998. J. Cell Biol., 141(2): 539-551; Baneyx et al. 2002. Proc. Natl. Acad. Sci. USA, 99(8): 5139-5143; Discher et al. 2005. Science, 310(5751): 1139-1143; Engler, supra; and Yoneda, supra). As such, the rheologic and functional characteristics of endothelial cells were assessed in the presence of the specific myosin ATPase inhibitor, blebbistatin. […]

[3] = test system: β-actin, α-actinin, and MLC2; assay: Western blot with semi-quantitative densitometry of cytoskeletal proteins; format: cell-based, human; details: 3-D fibrin gel
Excerpt: Tractional forces exerted at cell-matrix adhesion sites require the activation of an actinomyosin motor complex whose assembly is tightly linked to actin cytoskeleton organization, non-muscle myosin II isoform expression, and the rigidity of the surrounding substratum (Meshel et al. 2005. Nat. Cell Biol., 7(2): 157-164; Engler, supra; and Even-Ram, supra; Yoneda et al. 2007. Mol. Cell. Biol., 19(1): 66-75). β-actin, α-actinin, myosin light chain-2 (MLC2), and non-muscle myosin IIA and IIB isoform (NMMIIA and NMMIIB, respectively) protein levels were monitored in 3-D embedded endothelial cells to determine the effect of Fn matrix inhibition on the expression of gene products critical to the generation of tractional forces. Endothelial cells were cultured in 3-D fibrin gels for 2 days with either the FUD peptide or the control Del29 peptide. Levels of β-actin, α-actinin, NMMIIA, NMMIIB, and MLC2 were measured by Western blot, with ERK1/2 serving as the loading control. As assessed by semi-quantitative densitometry, the levels of β-actin, actinin and MLC2 were 58±7% (n=5; mean±1 SD), 62% (n=2), and 60±12% (n=3; mean±1 SD) of control, respectively.

| Compound | protein synthesis [1] | transcriptional activity [2] | VEGF/HGF induction of transcriptional activity (RNA synthesis) [2] | mRNA and rRNA synthesis inhibited [2] [%] | cytoplasmic stiffness (human endothelial cells; 3-D fibrin gel, 50 μM blebbistatin) | mean square displacement (MSD) of the beads (human endothelial cells; 3-D fibrin matrix, 3 days, relative to control cells) | elastic modulus of the cytoplasm (human endothelial cells; 3-D fibrin matrix, versus control cells, P<0.001) | level of actinin ([3]; 2 days, control Del29 peptide, n=2) | level of MLC2 ([3]; 2 days, control Del29 peptide, n=3, mean±1 SD) | level of β-actin ([3]; 2 days, control Del29 peptide, n=5, mean±1 SD) | levels of β-actin, α-actinin, and MLC2 ([3]; growth factor-stimulated) |
| --- | --- | --- | --- | --- | --- | --- | --- | --- | --- | --- | --- |
| CNC(=O)[C@H](Cc1c[nH]c2ccccc12)NC(=O)[C@@H](CC(=O)NO)CC(C)C [GM6001] | no major changes | unaffected | attenuated significantly | ~50 |  |  |  |  |  |  |  |
| Cc1ccc2c(c1)C(=O)C1(O)CCN(c3ccccc3)C1=N2 (stereo not drawn) [blebbistatin] |  |  |  |  | failed to increase |  |  |  |  |  |  |
| FUD: 49-residue functional upstream domain of Streptococcus pyogenes F1 adhesion protein, SEQ ID NO: 10; fibronectin fibril assembly inhibitor (KDQSPLAGESGETEYITEVYGNQQNPVDIDKKLPNETGFSGNMVETEDT; Streptococcus pyogenes; Functional Upstream Domain (FUD) of F1 adhesion protein) | no major changes | unaffected | attenuated significantly | ~50 |  | significantly increased | significantly lower | 62 % of control | 60±12 % of control | 58±7 % of control | markedly reduced |
